In ChEMBL document CHEMBL5465560, “Selectivity Literature for EUbOPEN Chemogenomic Library” (2024):

How the values were obtained:
[1] = biological target: Ephrin type-A receptor 2 (Homo sapiens) (UniProt P29317); test: Selectivity interaction (KinomeScan (DiscoverX)) EUB0000092b EPHA2; settings: at 10 µM
[2] = biological target: CDK4/Cyclin D3 (Homo sapiens) (UniProt P11802+P30281); test: (§1) Selectivity interaction (KinomeScan (DiscoverX)) EUB0000092b CDK4; format: protein-complex assay; settings: at 10 µM
[3] = biological target: Cyclin-dependent kinase 4/cyclin D1 (Homo sapiens) (UniProt P11802+P24385); test: as §1; format: protein-complex assay; settings: at 10 µM
[4] = biological target: Transient receptor potential cation channel subfamily M member 6 (Homo sapiens) (UniProt Q9BX84); test: Selectivity interaction (KinomeScan (DiscoverX)) EUB0000655a TRPM6; settings: at 10 µM
[5] = biological target: T1, Ephrin type-A receptor 1 (Homo sapiens) (UniProt P21709); test: Selectivity interaction (KinomeScan (DiscoverX)) EUB0000655a EPHA1; settings: at 10 µM
T1 sequence (whole entry): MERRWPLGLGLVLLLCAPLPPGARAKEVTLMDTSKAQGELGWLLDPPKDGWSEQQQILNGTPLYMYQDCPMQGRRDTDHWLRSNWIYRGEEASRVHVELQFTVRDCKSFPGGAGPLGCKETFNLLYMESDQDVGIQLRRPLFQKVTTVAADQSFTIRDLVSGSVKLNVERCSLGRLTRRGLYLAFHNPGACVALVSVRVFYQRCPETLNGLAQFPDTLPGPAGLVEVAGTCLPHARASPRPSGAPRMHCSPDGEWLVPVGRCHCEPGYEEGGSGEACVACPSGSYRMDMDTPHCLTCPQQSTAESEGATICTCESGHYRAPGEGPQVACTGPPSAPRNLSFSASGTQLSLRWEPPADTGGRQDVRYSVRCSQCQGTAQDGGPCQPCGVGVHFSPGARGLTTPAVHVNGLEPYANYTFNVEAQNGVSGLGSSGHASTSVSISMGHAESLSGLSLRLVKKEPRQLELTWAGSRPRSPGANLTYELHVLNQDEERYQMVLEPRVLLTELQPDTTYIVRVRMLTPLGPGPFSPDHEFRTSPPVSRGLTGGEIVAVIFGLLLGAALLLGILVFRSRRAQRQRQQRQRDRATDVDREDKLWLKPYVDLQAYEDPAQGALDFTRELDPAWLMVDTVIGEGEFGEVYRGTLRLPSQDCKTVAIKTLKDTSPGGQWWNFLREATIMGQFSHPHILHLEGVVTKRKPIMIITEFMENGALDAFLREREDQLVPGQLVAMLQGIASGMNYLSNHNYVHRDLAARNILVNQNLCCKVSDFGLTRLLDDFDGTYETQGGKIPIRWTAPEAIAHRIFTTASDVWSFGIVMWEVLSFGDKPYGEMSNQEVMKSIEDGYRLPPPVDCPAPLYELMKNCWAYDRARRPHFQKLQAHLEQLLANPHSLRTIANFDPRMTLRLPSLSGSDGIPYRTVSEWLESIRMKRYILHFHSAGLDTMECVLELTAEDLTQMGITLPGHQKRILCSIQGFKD

[6] = biological target: T2, Calcium/calmodulin-dependent protein kinase type IV (Homo sapiens) (UniProt Q16566); test: Selectivity interaction (KinomeScan (DiscoverX)) EUB0000666a CAMK4; settings: at 10 µM
T2 sequence (whole entry): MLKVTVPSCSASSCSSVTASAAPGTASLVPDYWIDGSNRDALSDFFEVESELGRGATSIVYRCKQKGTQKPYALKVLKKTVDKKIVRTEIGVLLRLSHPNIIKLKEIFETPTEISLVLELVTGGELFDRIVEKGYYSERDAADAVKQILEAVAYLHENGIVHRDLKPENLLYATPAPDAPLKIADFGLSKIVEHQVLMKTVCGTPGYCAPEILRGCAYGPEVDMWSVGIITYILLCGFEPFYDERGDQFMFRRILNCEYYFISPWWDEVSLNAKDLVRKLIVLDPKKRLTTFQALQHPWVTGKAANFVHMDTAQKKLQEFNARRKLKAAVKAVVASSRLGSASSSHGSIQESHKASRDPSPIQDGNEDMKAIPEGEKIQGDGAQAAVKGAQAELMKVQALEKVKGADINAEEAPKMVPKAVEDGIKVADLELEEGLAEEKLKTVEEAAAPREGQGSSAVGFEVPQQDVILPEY

[7] = tested on: T3, Receptor-type tyrosine-protein kinase FLT3 (Homo sapiens), P36888 [D835H]; settings: at 10 µM
T3 sequence (whole entry): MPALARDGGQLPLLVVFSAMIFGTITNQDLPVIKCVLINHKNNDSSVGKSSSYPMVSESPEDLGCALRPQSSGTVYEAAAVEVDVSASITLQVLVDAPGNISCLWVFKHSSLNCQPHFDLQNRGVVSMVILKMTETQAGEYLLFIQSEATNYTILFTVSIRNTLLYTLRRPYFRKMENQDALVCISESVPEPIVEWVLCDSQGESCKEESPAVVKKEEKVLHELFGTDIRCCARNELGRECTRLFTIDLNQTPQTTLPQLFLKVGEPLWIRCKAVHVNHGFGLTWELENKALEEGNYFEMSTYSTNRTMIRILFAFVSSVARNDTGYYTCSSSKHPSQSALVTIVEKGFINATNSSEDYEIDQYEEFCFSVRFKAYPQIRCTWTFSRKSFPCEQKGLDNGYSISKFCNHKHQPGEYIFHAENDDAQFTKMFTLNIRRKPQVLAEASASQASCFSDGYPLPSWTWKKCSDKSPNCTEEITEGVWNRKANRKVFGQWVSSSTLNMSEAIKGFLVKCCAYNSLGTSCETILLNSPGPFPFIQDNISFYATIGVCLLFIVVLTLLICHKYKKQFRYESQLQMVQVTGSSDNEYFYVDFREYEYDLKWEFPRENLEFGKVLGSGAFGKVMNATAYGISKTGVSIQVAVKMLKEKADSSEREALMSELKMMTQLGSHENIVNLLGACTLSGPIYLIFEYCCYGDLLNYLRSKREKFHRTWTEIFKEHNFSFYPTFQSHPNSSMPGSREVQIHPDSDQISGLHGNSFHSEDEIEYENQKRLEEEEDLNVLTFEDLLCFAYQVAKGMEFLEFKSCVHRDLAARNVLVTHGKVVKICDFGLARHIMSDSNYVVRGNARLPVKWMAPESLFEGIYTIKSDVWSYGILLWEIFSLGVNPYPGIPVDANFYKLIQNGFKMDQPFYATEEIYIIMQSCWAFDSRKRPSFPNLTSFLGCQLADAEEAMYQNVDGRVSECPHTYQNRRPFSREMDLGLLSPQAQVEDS

[8] = biological target: Bromodomain testis-specific protein (Homo sapiens) (UniProt Q58F21); test: Selectivity interaction (Bromodomain panel (DSF asssay)) EUB0000270b BRDT
[9] = biological target: Mitogen-activated protein kinase kinase kinase kinase 1 (Homo sapiens) (UniProt Q92918); test: Selectivity interaction (KinomeScan (DiscoverX)) EUB0000695a MAP4K1; settings: at 100 nM
[10] = biological target: Ribosomal protein S6 kinase alpha-1 (Homo sapiens, UniProt Q15418); test: Selectivity interaction (KinomeScan (DiscoverX)) EUB0000045b RPS6KA1; settings: at 10 µM
Sequence of Ribosomal protein S6 kinase alpha-1 (Q15418 whole entry): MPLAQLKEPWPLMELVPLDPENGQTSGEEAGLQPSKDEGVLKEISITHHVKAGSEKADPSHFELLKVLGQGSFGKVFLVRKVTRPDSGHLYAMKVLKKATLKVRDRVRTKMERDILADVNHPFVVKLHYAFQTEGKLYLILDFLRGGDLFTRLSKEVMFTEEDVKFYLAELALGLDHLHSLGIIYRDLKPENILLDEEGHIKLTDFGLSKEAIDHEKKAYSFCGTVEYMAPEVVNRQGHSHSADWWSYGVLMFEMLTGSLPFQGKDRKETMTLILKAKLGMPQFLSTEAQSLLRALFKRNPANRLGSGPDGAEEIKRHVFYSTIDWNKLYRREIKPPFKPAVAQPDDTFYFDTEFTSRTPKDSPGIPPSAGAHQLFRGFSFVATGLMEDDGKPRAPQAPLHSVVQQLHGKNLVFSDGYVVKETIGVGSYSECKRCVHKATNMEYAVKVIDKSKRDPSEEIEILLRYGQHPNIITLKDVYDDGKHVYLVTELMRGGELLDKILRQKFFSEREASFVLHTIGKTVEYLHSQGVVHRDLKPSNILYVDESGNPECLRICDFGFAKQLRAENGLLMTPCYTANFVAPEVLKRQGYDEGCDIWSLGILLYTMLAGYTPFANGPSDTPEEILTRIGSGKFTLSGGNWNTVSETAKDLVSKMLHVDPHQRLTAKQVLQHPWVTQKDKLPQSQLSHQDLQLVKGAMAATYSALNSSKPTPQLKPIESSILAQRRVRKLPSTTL

Sequence of Transient receptor potential cation channel subfamily M member 6 (Homo sapiens) (Q9BX84 whole entry): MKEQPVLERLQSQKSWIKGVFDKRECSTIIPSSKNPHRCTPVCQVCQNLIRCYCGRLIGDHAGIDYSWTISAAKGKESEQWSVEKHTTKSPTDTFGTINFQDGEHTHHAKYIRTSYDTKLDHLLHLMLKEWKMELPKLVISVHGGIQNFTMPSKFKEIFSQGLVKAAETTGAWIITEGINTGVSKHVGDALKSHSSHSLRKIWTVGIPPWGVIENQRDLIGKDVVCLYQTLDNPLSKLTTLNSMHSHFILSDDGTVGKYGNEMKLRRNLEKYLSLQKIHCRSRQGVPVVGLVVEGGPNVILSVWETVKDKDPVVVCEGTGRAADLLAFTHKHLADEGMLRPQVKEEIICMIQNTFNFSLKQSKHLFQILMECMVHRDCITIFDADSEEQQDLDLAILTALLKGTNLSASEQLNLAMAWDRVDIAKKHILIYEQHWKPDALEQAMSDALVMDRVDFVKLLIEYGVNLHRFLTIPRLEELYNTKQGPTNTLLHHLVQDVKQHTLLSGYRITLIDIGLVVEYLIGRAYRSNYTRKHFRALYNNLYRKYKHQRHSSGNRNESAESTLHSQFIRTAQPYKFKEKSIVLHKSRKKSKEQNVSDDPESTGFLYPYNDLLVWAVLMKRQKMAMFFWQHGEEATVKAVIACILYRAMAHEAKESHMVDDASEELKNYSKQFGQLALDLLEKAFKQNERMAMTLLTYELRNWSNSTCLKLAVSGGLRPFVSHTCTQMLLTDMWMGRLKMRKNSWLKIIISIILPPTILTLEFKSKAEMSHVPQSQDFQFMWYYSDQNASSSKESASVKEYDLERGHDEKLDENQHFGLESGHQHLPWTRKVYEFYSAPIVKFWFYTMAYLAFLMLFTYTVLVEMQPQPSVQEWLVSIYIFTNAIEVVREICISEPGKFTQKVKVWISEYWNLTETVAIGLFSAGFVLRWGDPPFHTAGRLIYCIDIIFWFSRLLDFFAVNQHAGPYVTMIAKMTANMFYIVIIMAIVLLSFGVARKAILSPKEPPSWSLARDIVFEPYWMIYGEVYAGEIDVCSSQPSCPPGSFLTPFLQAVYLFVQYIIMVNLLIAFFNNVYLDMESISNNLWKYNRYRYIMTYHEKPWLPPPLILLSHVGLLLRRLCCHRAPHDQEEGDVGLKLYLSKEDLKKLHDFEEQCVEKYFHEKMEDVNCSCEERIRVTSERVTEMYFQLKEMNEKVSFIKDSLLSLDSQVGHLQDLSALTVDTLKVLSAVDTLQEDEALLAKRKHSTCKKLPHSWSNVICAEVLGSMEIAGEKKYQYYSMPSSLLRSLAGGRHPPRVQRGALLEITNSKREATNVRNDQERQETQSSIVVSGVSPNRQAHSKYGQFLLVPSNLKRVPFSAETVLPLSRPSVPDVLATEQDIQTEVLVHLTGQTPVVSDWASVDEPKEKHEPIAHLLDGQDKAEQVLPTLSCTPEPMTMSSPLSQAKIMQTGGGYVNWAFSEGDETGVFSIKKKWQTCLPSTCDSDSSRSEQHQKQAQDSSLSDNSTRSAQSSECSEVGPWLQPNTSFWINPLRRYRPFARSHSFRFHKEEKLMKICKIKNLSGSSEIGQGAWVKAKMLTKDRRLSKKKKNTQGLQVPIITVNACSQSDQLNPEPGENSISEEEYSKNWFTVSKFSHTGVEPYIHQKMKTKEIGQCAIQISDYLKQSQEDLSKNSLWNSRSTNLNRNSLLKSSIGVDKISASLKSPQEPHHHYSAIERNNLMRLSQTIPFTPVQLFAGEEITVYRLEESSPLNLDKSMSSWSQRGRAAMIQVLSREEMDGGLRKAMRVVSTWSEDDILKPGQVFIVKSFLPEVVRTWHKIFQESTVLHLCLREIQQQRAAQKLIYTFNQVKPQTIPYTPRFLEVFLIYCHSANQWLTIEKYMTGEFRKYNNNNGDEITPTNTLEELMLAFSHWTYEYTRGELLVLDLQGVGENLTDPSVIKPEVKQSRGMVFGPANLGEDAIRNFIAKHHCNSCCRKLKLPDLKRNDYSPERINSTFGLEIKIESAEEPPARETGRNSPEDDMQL
Sequence of Ephrin type-A receptor 2 (Homo sapiens) (P29317 whole entry): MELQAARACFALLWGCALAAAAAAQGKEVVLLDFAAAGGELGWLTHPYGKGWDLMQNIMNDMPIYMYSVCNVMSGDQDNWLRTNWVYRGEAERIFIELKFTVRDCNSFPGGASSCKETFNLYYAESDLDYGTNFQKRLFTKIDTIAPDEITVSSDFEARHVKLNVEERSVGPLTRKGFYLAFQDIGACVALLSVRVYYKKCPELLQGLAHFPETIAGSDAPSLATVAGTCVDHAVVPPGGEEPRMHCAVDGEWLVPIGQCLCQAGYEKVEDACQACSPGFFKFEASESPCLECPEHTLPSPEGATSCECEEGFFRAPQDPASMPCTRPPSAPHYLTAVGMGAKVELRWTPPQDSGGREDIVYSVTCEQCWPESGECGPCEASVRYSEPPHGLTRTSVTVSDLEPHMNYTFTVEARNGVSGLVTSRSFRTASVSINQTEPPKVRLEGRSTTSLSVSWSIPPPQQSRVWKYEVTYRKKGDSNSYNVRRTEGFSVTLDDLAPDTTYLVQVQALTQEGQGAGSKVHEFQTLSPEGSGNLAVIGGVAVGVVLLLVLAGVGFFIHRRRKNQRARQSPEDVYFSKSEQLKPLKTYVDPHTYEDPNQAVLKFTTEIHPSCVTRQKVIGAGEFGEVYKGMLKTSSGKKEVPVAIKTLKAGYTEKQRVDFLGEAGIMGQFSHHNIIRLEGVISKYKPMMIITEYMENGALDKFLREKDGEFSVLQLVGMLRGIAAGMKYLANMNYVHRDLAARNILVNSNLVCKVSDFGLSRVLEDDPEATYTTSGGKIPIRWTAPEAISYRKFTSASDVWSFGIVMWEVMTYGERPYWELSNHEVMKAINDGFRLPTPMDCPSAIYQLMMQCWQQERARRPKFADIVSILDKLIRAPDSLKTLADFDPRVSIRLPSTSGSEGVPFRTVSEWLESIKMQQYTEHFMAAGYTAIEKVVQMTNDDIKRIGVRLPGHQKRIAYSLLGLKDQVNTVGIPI
Sequence of Mitogen-activated protein kinase kinase kinase kinase 1 (Homo sapiens) (Q92918 whole entry, looked up): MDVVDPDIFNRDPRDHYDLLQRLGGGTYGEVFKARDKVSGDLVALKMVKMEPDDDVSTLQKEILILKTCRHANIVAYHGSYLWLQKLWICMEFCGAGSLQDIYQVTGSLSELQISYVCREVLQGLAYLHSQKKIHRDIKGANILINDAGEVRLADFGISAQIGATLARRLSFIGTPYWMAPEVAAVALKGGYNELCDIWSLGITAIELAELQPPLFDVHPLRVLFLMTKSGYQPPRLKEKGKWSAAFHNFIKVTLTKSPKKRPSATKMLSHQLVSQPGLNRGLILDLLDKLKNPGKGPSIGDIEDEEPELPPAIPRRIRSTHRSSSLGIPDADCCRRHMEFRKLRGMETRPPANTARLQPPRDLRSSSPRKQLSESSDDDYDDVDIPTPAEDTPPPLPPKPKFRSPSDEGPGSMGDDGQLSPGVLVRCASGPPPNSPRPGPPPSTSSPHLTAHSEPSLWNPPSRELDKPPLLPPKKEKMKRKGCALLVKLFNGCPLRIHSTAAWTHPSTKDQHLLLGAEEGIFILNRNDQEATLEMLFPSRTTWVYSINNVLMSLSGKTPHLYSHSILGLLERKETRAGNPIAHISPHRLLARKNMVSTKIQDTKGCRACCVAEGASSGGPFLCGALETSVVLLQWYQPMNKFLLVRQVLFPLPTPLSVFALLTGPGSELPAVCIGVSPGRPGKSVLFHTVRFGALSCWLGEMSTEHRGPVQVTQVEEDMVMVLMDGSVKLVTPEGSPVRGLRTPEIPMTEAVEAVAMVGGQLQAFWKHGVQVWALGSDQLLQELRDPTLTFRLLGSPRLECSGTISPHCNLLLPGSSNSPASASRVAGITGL

## CCC(=O)N1CCN(c2ccc(-n3c(=O)ccc4cnc5ccc(-c6cnc7ccccc7c6)cc5c43)cc2C(F)(F)F)CC1
[1]
  % of control: 59%
[2]
  % of control: 87%
[3]
  % of control: 100%

## CN(C)CCOc1ccc(-c2nc(-c3ccncc3)c(-c3ccc4c(c3)CC/C4=N\O)[nH]2)cc1
[4]
  % of control: 100%
[5]
  % of control: 91%

## O=C(NOC[C@H](O)CO)c1ccc(F)c(F)c1Nc1ccc(I)cc1F
[6]
  % of control: 100%

## Cc1cc([C@@H](C)Nc2ccccc2C(=O)O)c2nc(N3CCOCC3)cc(=O)n2c1 [AZD-6482]
[7]
  % of control: 27%

## Cc1cc(CN)cc(C)c1-c1ncn(C)c1-c1cncn1C
[8]
  dTM: -1.97 K

## Cc1cc(F)c(C(=O)Nc2cccc(-c3nncn3C(C)C)n2)cc1-n1cnc(C2CC2)c1
[9]
  % of control: 97%

## C=CC(=O)Nc1cc(-n2c(=O)ccc3cnc4ccc(-c5ccc(NS(C)(=O)=O)cc5)cc4c32)ccc1C
[10]
  % of control: 78%
